Key:
PKC epsilon = target: T1, PKC epsilon (Homo sapiens, UniProt Q02156); experiment: PKC assay, fluorescence polarization (Example 2), PKC epsilon; format: biochemical; details: 5 μM ATP
T1 construct: purchased Upstate Biotechnologies, Temecula, CA 14-518
T1 sequence (Q02156 1-737): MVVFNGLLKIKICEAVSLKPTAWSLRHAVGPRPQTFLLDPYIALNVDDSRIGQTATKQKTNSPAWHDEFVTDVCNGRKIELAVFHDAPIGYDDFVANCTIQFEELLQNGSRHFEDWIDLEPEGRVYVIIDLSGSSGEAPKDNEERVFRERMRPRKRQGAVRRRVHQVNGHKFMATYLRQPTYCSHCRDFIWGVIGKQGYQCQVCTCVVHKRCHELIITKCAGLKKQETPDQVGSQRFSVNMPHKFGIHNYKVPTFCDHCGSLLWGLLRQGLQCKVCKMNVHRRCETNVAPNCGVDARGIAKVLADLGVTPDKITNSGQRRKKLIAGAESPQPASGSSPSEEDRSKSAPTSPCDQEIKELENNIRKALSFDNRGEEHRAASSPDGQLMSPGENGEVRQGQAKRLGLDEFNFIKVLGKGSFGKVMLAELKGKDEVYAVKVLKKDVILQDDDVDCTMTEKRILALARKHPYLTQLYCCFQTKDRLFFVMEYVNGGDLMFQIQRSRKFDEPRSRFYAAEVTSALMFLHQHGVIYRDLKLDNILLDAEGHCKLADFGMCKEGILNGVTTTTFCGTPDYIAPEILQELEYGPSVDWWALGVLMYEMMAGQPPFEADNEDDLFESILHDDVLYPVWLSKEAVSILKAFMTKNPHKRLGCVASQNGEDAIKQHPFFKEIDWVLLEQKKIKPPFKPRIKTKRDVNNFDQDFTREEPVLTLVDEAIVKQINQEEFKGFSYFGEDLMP
Procedure: The inhibition of PKC activity was measured by monitoring the production of phosphorylated peptide by fluorescence polarization at different concentrations of the inhibitor. Reactions were carried out in 96-well plate format with a total volume of 20 μL containing 20 mM HEPES, pH 7.4, 5 mM MgCl2, 0.2 mM CaCl2, 1 mM DTT, 0.02% Brij-35, 0.1 mg/mL phosphatidylserine, 0.02 mg/mL dioleoyl-sn-glycerol and 5 μM each of ATP and the peptide substrate. Compounds were first diluted serially in DMSO and then transferred to a solution containing the above concentrations of HEPES, MgCl2, CaCl2, DTT, and Brij-35 to yield 5× compound solutions in 2% DMSO, which was then added to the reaction solution. Reactions were initiated by the addition of PKC at a typical concentration as described in Table VI, and then allowed to incubate at room temperature for 20 min. At the end of this time, a combination of quench (EDTA) and detection (peptide tracer and antibody) reagents was added using the protocol of Invitrogen P2748.

PKC theta = target: T2, PKC theta (Homo sapiens, UniProt Q04759); experiment: PKC assay, fluorescence polarization (Example 2), PKC theta; format: biochemical; details: 5 μM ATP
T2 construct: purchased Upstate Biotechnologies, Temecula, CA 14-444
Procedure, shortened: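 Phosphorylated peptide product detected by fluorescence polarization, with EDTA quench plus peptide tracer and antibody. Reaction in 20 mM HEPES pH 7.4, 5 mM MgCl2, 0.2 mM CaCl2, 1 mM DTT, 0.02% Brij-35, phosphatidylserine and dioleoyl-sn-glycerol, with 5 μM ATP and 5 μM peptide. Started with enzyme, 20 min at room temperature.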

Human primary T cells = experiment: IL-2 ELISA, Human Primary T Cell, Anti-CD3+CD28+ (Example 3); format: cell-based; details: anti-CD3+CD28 stimulation
Procedure, shortened: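 IL-2 was read by ELISA after stimulation on wells pre-coated with 1 ug/ml αCD3 and 5 μg/ml αCD28. Before this, 100,000 human primary T cells per well spent 1 h at 37 °C with test compound in Yssel's medium. The counter-screen replaced antibody stimulation with PMA (0.5 ng/ml final) and ionomycin (0.1 uM final).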

T2 sequence (Q04759 whole entry): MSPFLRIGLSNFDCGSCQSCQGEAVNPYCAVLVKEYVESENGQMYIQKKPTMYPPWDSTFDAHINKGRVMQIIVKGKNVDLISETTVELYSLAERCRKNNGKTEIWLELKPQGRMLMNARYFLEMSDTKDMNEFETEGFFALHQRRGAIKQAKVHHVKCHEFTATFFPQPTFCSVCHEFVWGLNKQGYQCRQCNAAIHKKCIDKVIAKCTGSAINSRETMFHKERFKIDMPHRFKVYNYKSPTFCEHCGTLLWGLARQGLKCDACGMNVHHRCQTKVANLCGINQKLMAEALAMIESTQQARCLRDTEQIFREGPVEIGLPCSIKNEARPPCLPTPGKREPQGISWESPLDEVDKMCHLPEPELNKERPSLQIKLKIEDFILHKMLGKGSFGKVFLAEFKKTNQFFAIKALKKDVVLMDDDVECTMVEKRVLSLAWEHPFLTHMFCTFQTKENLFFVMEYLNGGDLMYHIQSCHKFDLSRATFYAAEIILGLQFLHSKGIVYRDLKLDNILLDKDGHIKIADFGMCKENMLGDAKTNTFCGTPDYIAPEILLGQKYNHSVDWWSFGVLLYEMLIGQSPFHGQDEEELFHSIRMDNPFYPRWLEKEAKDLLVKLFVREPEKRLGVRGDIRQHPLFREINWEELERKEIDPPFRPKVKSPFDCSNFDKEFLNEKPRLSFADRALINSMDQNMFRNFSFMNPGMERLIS

SMILES	IC50 (PKC epsilon)	IC50 (PKC theta)	IC50 (Human primary T cells; Homo sapiens, T-cell, 24 h)	IC50 (Human primary T cells; 24 hours)
COc1cc(Nc2ncc(C(F)(F)F)c(NC3CC(C)(C)N(C)C(C)(C)C3)n2)cc(OC)c1 [Compound I-363]	54.8 nM	4.17 nM	233 nM	
COc1ccc(Nc2ncc(F)c(NC3CC(C)(C)N(C)C(C)(C)C3)n2)cc1C(F)(F)F [Compound I-147]	115 nM	8.01 nM	168 nM	
CCN1CCN(c2ccc(Nc3ncc(F)c(NC4CC(C)(C)N(C)C(C)(C)C4)n3)cc2Cl)CC1 [Compound I-248]	13.4 nM	2.75 nM	110 nM	
CCOc1ccc(Nc2ncc(F)c(NC3CC(C)(C)NC(C)(C)C3)n2)cc1-n1nnnc1CC [Compound I-415]	13 nM	0.5 nM	60 nM	
CCN1C(=O)C(C)(C)Oc2cc(Nc3ncc(C)c(NC4CC(C)(C)N(C)C(C)(C)C4)n3)ccc21 [II-145]	2690 nM	28.1 nM	370 nM	
CN1C(C)(C)CC(Nc2nc(Nc3cc(OCC(F)(F)F)cc(OCC(F)(F)F)c3)ncc2F)CC1(C)C [Compound I-378]	42.9 nM	3.5 nM	310 nM	
CN1C(C)(C)CC(Nc2nc(Nc3cc(Cl)cc(Cl)c3)ncc2F)CC1(C)C [Compound I-103]	413 nM	50.4 nM	129 nM	
CN1CCN(c2ncc(Nc3ncc(F)c(NC4CC(C)(C)N(C)C(C)(C)C4)n3)cc2C(F)(F)F)CC1 [Compound I-273]	4.87 nM	3.34 nM		217 nM
CN1C(C)(C)CC(Nc2nc(Nc3cccc(-n4cnnn4)c3)ncc2F)CC1(C)C [Compound I-357]	7.11 nM	5.11 nM	67.6 nM	
COc1cc(Nc2ncc(C(F)(F)F)c(NC3CC(C)(C)N(C)C(C)(C)C3)n2)cc(-n2cnnn2)c1 [Compound I-356]	43 nM	7.26 nM	96 nM	
COc1ccc(Nc2ncc(C#N)c(NC3CC(C)(C)N(C)C(C)(C)C3)n2)cc1Cl [Compound I-93]	208 nM	2.59 nM	344 nM	
CN1C(C)(C)CC(Nc2nc(Nc3ccc(-n4cccc4)c(C#N)c3)ncc2F)CC1(C)C [Compound I-148]	150 nM	13.5 nM	223 nM	
CN1C(C)(C)CC(Nc2nc(Nc3ccc(-c4cccnc4)c(C(F)(F)F)c3)ncc2F)CC1(C)C [Compound I-112]	25.6 nM	8.91 nM	73.3 nM	
CN1C(C)(C)CC(Nc2nc(Nc3ccc(N4CCN(S(C)(=O)=O)CC4)c(Cl)c3)ncc2C(F)(F)F)CC1(C)C [Compound I-92]	271 nM	4.56 nM	208 nM	
Cc1ccc(Nc2ncc(F)c(NC3CC(C)(C)N(C)C(C)(C)C3)n2)cc1-c1ccoc1 [Compound I-188]	36.7 nM	4.74 nM	178 nM	
CN1C(C)(C)CC(Nc2nc(Nc3cccc(OC(F)(F)F)c3)ncc2F)CC1(C)C [Compound I-223]	119 nM	31.7 nM	184 nM	
CN1C(C)(C)CC(Nc2nc(Nc3ccc(N4CCCC4)c(C(F)(F)F)c3)ncc2F)CC1(C)C [Compound I-232]	42 nM	63.4 nM	894 nM	
CCN1C(=O)C(C)(C)Oc2cc(Nc3ncc(F)c(NC4CC(C)(C)N(C)C(C)(C)C4)n3)ccc21 [II-35]	159 nM	8.94 nM	142 nM	
CCN1CCN(c2ccc(Nc3ncc(F)c(NC4CC(C)(C)N(C)C(C)(C)C4)n3)cc2C(F)(F)F)CC1 [Compound I-246]	9.94 nM	3.37 nM	117 nM	
Cc1ccc(Nc2ncc(F)c(NC3CC(C)(C)N(C)C(C)(C)C3)n2)cc1-c1ccncc1 [Compound I-187]	51 nM	4.92 nM	305 nM	

Source: patent US8993585B2, “Cyclic amine substituted pyrimidinediamines as PKC inhibitors” (Rigel Pharmaceuticals, Inc., priority 2007, dated 2015)
